# Test results from patent US20170158636A1, “FUNCTIONALISED AND SUBSTITUTED CARBAZOLES AS ANTI-CANCER AGENTS” (Novogen Ltd., priority 2014, published 2017).
# pIC50: −log10 of the molar value.
# Assays:
# [1] = tested on: Skeletal myosin II; assay: Actin-activated myosin II ATPase activity; assay type: biochemical; settings: 50 μM, absence of Tpm3.1
# Protocol: FIG. 4: Effect of anti-tropomyosin compounds on actin-activated myosin II ATPase activity. Skeletal myosin II (30-60 nM) was incubated with 1% (v/v) DMSO or 50 μM of Blebbistatin, TR100 or compound 1001 for 5 min prior to mixing with 3 μM F-actin. Reactions were initiated with 1 mM ATP and inorganic phosphate release was detected spectrophotometrically. Data represents mean±SEM, for n=2-4 independent repeats. **P-value, 0.001<0.01.
# To exclude an off-target activity, the impact of compound 1001 and TR100 (another small molecule with anti-tropomyosin activity) on myosin II ATPase activity was evaluated in the absence of Tpm3.1. The small molecule blebbistatin was included as a positive control known to inhibit myosin II ATPase activity. Blebbistatin acts by binding to the myosin-ADP-Pi complex and slowing the release of inorganic phosphate (Kovacs et al., 2004). Myosin II was pre-incubated with 50 μM of blebbistatin, TR100 or 1001 prior to mixing with F-actin. […] Compound 1001 had no effect on myosin ATPase activity at equivalent concentrations to that of TR100 (FIG. 4).
# [2] = tested on: A375 melanoma xenograft; assay: A375 melanoma flank xenograft model; assay type: in vivo; settings: IV 60 mg/kg in 30% (w/v) Captisol daily for 16 days, mice
# Protocol: FIG. 5: Effect of compound 1001 on tumour growth in vivo. Compound 1001 was administered IV at 60 mg/kg for 16 days in a flank xenograft model of melanoma (A375). Tumour volume was measured every 2-3 days. **p<0.01, ***P<0.001.
# In vivo efficacy studies for compound 1001 were conducted using an A375 melanoma xenograft model in Foxn-1 nu/nu athymic mice. The human melanoma cell line A375 (sourced from American Type Culture Collection (ATCC), USA) was used for developing the flank xenograft model. Briefly, five million cells were injected subcutaneously in the right flank region of the animal. When the tumors reached 130-150 mm^3 the animals were randomized into two groups, each group with 8 animals in them, so that the average tumor volume of all the groups was same.
# Compound 1001 was delivered intravenously (IV) at 60 mg/kg in a 30% (w/v) Captisol (cyclodextrin-containing) formulation daily for 16 days. The control group was dosed with the Captisol vehicle alone.
# [3] = tested on: actin cytoskeleton in SK-N-SH neuroblastoma cells; assay: Microfilament disruption assay (phalloidin staining, linear feature quantitation); assay type: cell-based; settings: 0-40 μM, 24 hours post treatment
# Protocol: FIG. 1: Imaging and quantitation of actin filaments in SK-N-SH neuroblastoma cells treated with compound (A) 1007, (B) 1013 and (C) 1016. Cells were stained with 488-Atto-Phallodin and DAPI to visualize the actin filament bundles and the nucleus, respectively. Shown in the top panel is a representative gray scale immunofluorescent image from control (vehicle alone), 5 μM and 10 μM treated cells. […] The coloured lines indicate the detected actin filaments. Also shown is the quantitation of cell number, filament number/cell and filament number/cell area (μM^2). Statistical analysis was performed using a one way ANNOVA-multiple comparison where each drug treated group was compared to the control. ****p<0.0001, […].
# The ability of compounds 1007, 1013 and 1016 to disrupt the actin cytoskeleton was assessed in vitro using the microfilament disruption assay (FIG. 1).
# Briefly, SK-N-SH neuroblastoma cells were seeded at 1800 cells/well in a 384 Perkin Elmer High Content Imaging “Cell Carrier” plate and left to plate down 24 hours prior to treatment. Cells were then treated with 0-40 μM of the test compounds (1:2 serial dilution in a 10 point dose response). 24 hours post treatment, cells were fixed with 4% w/v paraformaldehyde (PBS), permeabilized with Triton-X-100 and stained with 488-Atto-Phallodin and DAPI to visualize the actin filament bundles and the nucleus respectively. Single plane images were obtained on the Perkin Elmer Opera confocal microscope using a 20× objective. Twelve fields of view per condition (representing approximately 300-800 cells) were imaged. Images were then exported and changes in the organization and numbers of actin filaments within the cell were quantitated using a linear feature detection algorithm developed by CSIRO (Vindin et al. 2014). This algorithm detects the “ridge lines” or “peaks” in local pixel intensity in the cell image. It is these “ridge lines” that correspond to actin filament bundles and allow us to quantitate the number of filaments per cell.
# [4] = target: alpha-fast Tm (Homo sapiens, UniProt P09493); assay: Cell free actin co-sedimentation assay; assay type: binding; settings: 50 μM compound, 3 μM F-actin
# Sequence of alpha-fast Tm (P09493 whole entry): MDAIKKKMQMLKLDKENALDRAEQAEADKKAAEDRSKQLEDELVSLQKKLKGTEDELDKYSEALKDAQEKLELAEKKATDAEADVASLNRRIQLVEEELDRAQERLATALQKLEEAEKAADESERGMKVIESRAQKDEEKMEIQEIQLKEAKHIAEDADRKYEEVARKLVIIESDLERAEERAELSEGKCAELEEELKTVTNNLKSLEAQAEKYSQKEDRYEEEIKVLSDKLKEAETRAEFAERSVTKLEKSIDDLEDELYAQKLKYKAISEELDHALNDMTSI
# Protocol: (§1) FIG. 3: Impact of compound 1001 on the polymerization of tropomyosin and its subsequent association with actin. Increasing concentrations of (A) cytoskeletal Tpm3.1 or (B) muscle alpha-fast Tm (0.3-4.0 μM) were pre-incubated with 1% (v/v) DMSO (vehicle control) or 50 μM ATM-1001 prior to combining with 3 μM F-actin. The Tm/F-actin mixture was sedimented and the ratio of tropomyosin:actin in the pellet, normalized to the ratio that occurs at tropomyosin saturation, was plotted against the concentration of unbound tropomyosin in the supernatant.
# (§2) Cell free actin co-sedimentation assays were preformed to analyze the impact of compound 1001 on the polymerization of tropomyosin and subsequent association with actin. The impact of compound 1001 on Tpm3.1 binding was compared to the striated muscle isoform, alpha-fast Tm, which has an unrelated C-terminus.
# [5] = target: Tpm3.1 (Homo sapiens, UniProt P06753); assay: Cell free actin co-sedimentation assay; assay type: binding; settings: 50 μM compound, 3 μM F-actin
# Sequence of Tpm3.1 (P06753 1-248 isoform P06753-2): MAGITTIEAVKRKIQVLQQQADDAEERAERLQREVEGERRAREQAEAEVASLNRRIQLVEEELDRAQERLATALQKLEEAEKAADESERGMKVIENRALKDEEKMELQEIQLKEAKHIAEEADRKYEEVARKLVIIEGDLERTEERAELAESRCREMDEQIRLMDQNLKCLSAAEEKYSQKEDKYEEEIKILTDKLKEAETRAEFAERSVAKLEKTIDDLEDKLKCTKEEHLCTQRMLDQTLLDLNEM
# Protocol: as §1, §2
# [6] = tested on: PC3 prostate cancer cells; assay: Anti-proliferative activity, cell-titre luminescent viability assay; assay type: cell-based; settings: 72 hours exposure
# Protocol: (§3) The ability of compounds 1001-1018 and 1037-1039 to inhibit the proliferation of cancer cells representative of neuroblastoma, melanoma, prostate cancer, colorectal cancer, non-small cell lung carcinoma, and triple negative breast cancer was assessed (Table 1).
# (§4) Briefly, a pre-determined number of cells as calculated from cell growth assays for each of the cell lines employed were seeded into their respective culture medium (using ATCC culture parameters—http://www.atcc.org) and cultured for 24 hours at 37° C. and 5% CO2 in 96-well culture plates. Once attached, each cell line was then exposed to increasing concentrations of each respective analogue (0.03, 0.3, 3 and 30 μM for compounds 1001-13 and 1015-18; 0.1, 0.3, 1, 3, 10 and 30 μM for compounds 1014 and 1037-39), cultured for a further 72 hours and exposed to cell-titre luminescent reagent (100 μL/well) for a further 30 minutes) to measure cell viability. Luminescence was captured using an EnVision multilabel reader and the data for each analogue concentration compared against no treatment control. For compounds 1001-13 and 1015-18, semi-log plots of Percent of Control versus concentration were prepared and IC50 determined using linear regression analysis. For compounds 1014 and 1037-39, cell viability was normalized to control (vehicle alone) and dose-response curves, and half maximal effective concentration (EC50) values were determined using Graph Pad Prism 6 (nonlinear regression sigmoidal dose-response variable slope).
# [7] = tested on: DU145 prostate cancer cells; assay: as above; assay type: cell-based; settings: Homo sapiens, DU-145, 72 hours exposure
# Protocol: as §3, §4
# [8] = tested on: A549 lung (NSLC) cancer cells; assay: as above; assay type: cell-based; settings: Homo sapiens, 72 hours exposure
# Protocol: as §3, §4
# [9] = tested on: SK-Mel-28 melanoma cells; assay: as above; assay type: cell-based; settings: Homo sapiens, 72 hours exposure
# Protocol: as §3, §4
# [10] = tested on: MDA-MB-231 breast cancer cells; assay: as above; assay type: cell-based; settings: Homo sapiens, 72 hours exposure
# Protocol: as §3, §4
compound,measurement,setting,value
"CN(C)CCCn1c2ccccc2c2cc(C(=O)N3CCN(CCc4ccccc4)CC3)ccc21 [Compound 1001, (9-(3-(dimethylamino)propyl)-9H-carbazol-3-yl)(4-phenethylpiperazin-1-yl)methanone]",effect on actin-activated myosin II ATPase activity,[1],no effect
same,reduction in melanoma tumor growth,[2],~40%
same,tolerance of treatment,[2],well tolerated
same,disruption of the actin cytoskeleton,[3],"strong on-target, dose-dependent profile"
same,binding affinity and cooperativity of alpha-fast Tm for F-actin,[4],not affected
same,polymerization and association of Tpm3.1 with actin,[5],profoundly inhibited
same,pIC50,[6],5.26
same,pIC50,[7],< 4.52
same,pIC50,[8],5.07
same,pIC50,[9],5.64
same,pIC50,[10],5.36
CCCCCCCCNC(=O)/C(C#N)=C/c1c(C)n(CCCN(C)C)c2ccccc12 [TR100],inhibition of actin-activated myosin ATPase activity,[1],~70%
Cc1ccc2c(c1)C(=O)C1(O)CCN(c3ccccc3)C1=N2 (stereo not shown) [blebbistatin],effect on actin-activated myosin II ATPase activity,[1],strongly inhibited
